# Results reported in patent publication US11072585B2 (PharmAkea, Inc., priority 2015, dated 2021).
# Where a name gives a salt, the structure may show the parent alone.
# Biological target: human LOXL2 (Homo sapiens (Human), UniProt Q9Y4K0)
# Experiment: Human LOXL2 amine oxidase activity assay (Amplex Red)
# Type: biochemical
# Details: concentrated conditioned media from CHO cells stably expressing human LOXL2; 2 h at 37° C. with compound; DAP substrate
# Procedure: Example B-1: Human LOXL2 Amine Oxidase Activity Assay
# LOXL2 amine oxidase activity is evaluated by measuring Amplex Red fluorescence using 10-20× concentrated conditioned media from CHO cells stably expressing human LOXL2. To assay for amine oxidase activity, 10 μL of the concentrated conditioned media is incubated with 2 μL of test compound in DMSO and 73 μL Assay Buffer (50 mM Borate Buffer, pH8) for 2 h at 37° C. After the 2 h incubation, 5 ul of 10 mM 1,5-Diaminopentane (DAP) diluted in Assay Buffer and 10 μl of Amplex Red Mix (8.5 μl Assay Buffer+0.5 μl of 10 mM Amplex Red+1 μl of 500 U/ml Horseradish Peroxidase) are added and the plate mixed and immediately placed on the FlexStaion for fluorescence measurements. Fluorescence is read in kinetic mode every 2 min for 1 hour at excitation=544 and emission=590. The amine oxidase activity is calculated from the slope of the linear portion of the curve.
# Chain of human LOXL2 (Q9Y4K0 26-774): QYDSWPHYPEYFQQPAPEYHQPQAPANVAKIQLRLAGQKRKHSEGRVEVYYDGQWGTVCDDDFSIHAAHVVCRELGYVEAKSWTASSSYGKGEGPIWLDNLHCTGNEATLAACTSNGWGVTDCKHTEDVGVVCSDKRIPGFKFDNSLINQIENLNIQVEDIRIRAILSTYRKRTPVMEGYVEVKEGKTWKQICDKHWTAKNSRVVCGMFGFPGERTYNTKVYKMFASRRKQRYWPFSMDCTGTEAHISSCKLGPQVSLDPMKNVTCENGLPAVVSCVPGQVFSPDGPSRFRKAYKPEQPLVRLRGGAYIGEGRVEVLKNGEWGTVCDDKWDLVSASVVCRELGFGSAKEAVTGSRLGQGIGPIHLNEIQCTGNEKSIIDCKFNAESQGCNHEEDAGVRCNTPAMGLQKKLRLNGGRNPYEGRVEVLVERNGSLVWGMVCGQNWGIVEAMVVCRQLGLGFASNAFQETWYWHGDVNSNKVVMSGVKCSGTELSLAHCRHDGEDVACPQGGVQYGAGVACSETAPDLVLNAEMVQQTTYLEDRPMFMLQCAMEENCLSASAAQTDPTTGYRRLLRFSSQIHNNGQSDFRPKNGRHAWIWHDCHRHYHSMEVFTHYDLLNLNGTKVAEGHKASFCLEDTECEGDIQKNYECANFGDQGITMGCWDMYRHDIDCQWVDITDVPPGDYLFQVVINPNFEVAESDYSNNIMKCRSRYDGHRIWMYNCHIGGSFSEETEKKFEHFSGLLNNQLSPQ
row,IC50,Compound
1,> 1000 nM,"NCc1cc(Oc2cccc3c2CCC(=O)N3CC(=O)O)nc(C(F)(F)F)c1 [Compound 1-236, 2-(5-((4-(Aminomethyl)-6-(trifluoromethyl)pyridin-2-yl)oxy)-2-oxo-3,4-dihydroquinolin-1(2H)-yl)acetic acid hydrochloride]"
2,300 to 1000 nM,"NCc1cc(Oc2cccc3c2ccn3CC(=O)N2CCNCC2)nc(C(F)(F)F)c1 [Compound 1-233, 2-(4-((4-(Aminomethyl)-6-(trifluoromethyl)pyridin-2-yl)oxy)-1H-indol-1-yl)-1-(piperazin-1-yl)ethan-1-one dihydrochloride]"
3,< 300 nM,"NCc1cc(Oc2cccc(C(=O)NCCN3CCOC3=O)c2)nc(C(F)(F)F)c1 [Compound 1-28, 3-((4-(Aminomethyl)-6-(trifluoromethyl)pyridin-2-yl)oxy)-N-(2-(2-oxooxazolidin-3-yl)ethyl)benzamide]"
4,< 300 nM,"NCc1cc(O[C@H]2CCCN(C(=O)Cc3ccc(Cl)c(Cl)c3)C2)nc(C(F)(F)F)c1 [Compound 1-47, (S)-1-(3-((4-(Aminomethyl)-6-(trifluoromethyl)pyridin-2-yl)oxy)piperidin-1-yl)-2-(3,4-dichlorophenyl)ethanone trifluoroacetate]"
5,< 300 nM,"NCc1cc(Oc2cccc(C(=O)N[C@H]3CCC[C@H]3O)c2)nc(C(F)(F)F)c1 [Compound 1-210, 3-((4-(Aminomethyl)-6-(trifluoromethyl)pyridin-2-yl)oxy)-N-((1S,2R)-2-hydroxycyclopentyl)benzamide hydrochloride]"
6,300 to 1000 nM,"NCc1cc(Oc2cccc(C(=O)N3CCC[C@@H]3C(=O)O)c2)nc(C(F)(F)F)c1 [Compound 1-25, (R)-1-(3-((4-(Aminomethyl)-6-(trifluoromethyl)pyridin-2-yl)oxy)benzoyl)pyrrolidine-2-carboxylic acid hydrochloride]"
7,< 300 nM,"NCc1cc(Oc2cccc(C(=O)N3CC4(CCOCC4)C3)c2)nc(C(F)(F)F)c1 [Compound 1-207, (3-((4-(Aminomethyl)-6-(trifluoromethyl)pyridin-2-yl)oxy)phenyl)(7-oxa-2-azaspiro[3.5]nonan-2-yl)methanone hydrochloride]"
8,< 300 nM,"NCc1cc(Oc2cccc(C(=O)N3CC[C@H](F)C3)c2)nc(C(F)(F)F)c1 [Compound 1-213, (S)-(3-((4-(Aminomethyl)-6-(trifluoromethyl)pyridin-2-yl)oxy)phenyl)(3-fluoropyrrolidin-1-yl)methanone hydrochloride]"
9,< 300 nM,"NCc1cc(Oc2cccc(C(=O)N3CC[C@@H](CO)C3)c2)nc(C(F)(F)F)c1 [Compound 1-26, (R)-(3-((4-(Aminomethyl)-6-(trifluoromethyl)pyridin-2-yl)oxy)phenyl)(3-(hydroxymethyl)pyrrolidin-1-yl)methanone hydrochloride]"
10,< 300 nM,"NCc1cc(O[C@H]2CCCN(C(=O)Cc3ccccc3)C2)nc(C(F)(F)F)c1 [Compound 1-46, (S)-1-(3-((4-(Aminomethyl)-6-(trifluoromethyl)pyridin-2-yl)oxy)piperidin-1-yl)-2-phenylethanone trifluoroacetate]"
11,< 300 nM,"NCc1cc(O[C@H]2CCCN(C(=O)c3cc(=O)c4ccccc4o3)C2)nc(C(F)(F)F)c1 [Compound 1-48, (S)-2-(3-((4-(Aminomethyl)-6-(trifluoromethyl)pyridin-2-yl)oxy)piperidine-1-carbonyl)-4H-chromen-4-one trifluoroacetate]"

# Second part, the compound before the results:
row,Compound,IC50
1,"NCc1cc(Oc2cccc(Nc3ccccc3)c2)nc(C(F)(F)F)c1 [Compound 1-5, 3-((4-(Aminomethyl)-6-(trifluoromethyl)pyridin-2-yl)oxy)-N-phenylaniline]",< 300 nM
2,"NCc1cc(Oc2cccc(C(=O)Nc3cncnc3)c2)nc(C(F)(F)F)c1 [Compound 1-226, 3-((4-(Aminomethyl)-6-(trifluoromethyl)pyridin-2-yl)oxy)-N-(pyrimidin-5-yl)benzamide hydrochloride]",< 300 nM
3,"NCc1cc(Oc2cccc(C(=O)NO)c2)nc(C(F)(F)F)c1 [Compound 1-218, 3-((4-(Aminomethyl)-6-(trifluoromethyl)pyridin-2-yl)oxy)-N-hydroxybenzamide hydrochloride]",300 to 1000 nM
4,"NCc1cc(NC(=O)c2cccc(C(=O)N3CC[C@H](O)C3)c2)nc(C(F)(F)F)c1 [Compound 1-241, (S)—N-(4-(Aminomethyl)-6-(trifluoromethyl)pyridin-2-yl)-3-(3-hydroxypyrrolidine-1-carbonyl)benzamide trifluoroacetate]",< 300 nM
5,"Cc1cc(=O)oc2cc(NC(=O)c3cccc(Oc4cc(CN)cc(C(F)(F)F)n4)c3)ccc12 [Compound 1-249, 3-((4-(Aminomethyl)-6-(trifluoromethyl)pyridin-2-yl)oxy)-N-(4-methyl-2-oxo-2H-chromen-7-yl)benzamide hydrochloride]",< 300 nM
6,"CONC(=O)c1cccc(Oc2cc(CN)cc(C(F)(F)F)n2)c1 [Compound 1-219, 3-((4-(Aminomethyl)-6-(trifluoromethyl)pyridin-2-yl)oxy)-N-methoxybenzamide hydrochloride]",< 300 nM
7,"CCc1cccc(NC(=O)c2cccc(Oc3cc(CN)cc(C(F)(F)F)n3)c2)c1 [Compound 1-245, 3-((4-(Aminomethyl)-6-(trifluoromethyl)pyridin-2-yl)oxy)-N-(3-ethylphenyl)benzamide hydrochloride]",< 300 nM
8,"CS(=O)(=O)OC1CN(C(=O)c2cccc(Oc3cc(CN)cc(C(F)(F)F)n3)c2)CC1F (centres unmarked) [Compound 1-214, hydrochloride]",< 300 nM
9,"NCc1cc(-c2cccnc2)nc(C(F)(F)F)c1 [Compound 1-1, (6-(Trifluoromethyl)-[2,3′-bipyridin]-4-yl)methanamine trifluoroacetate]",< 300 nM
10,"CCOC(=O)CN1C(=O)CCc2c(Oc3cc(CN)cc(C(F)(F)F)n3)cccc21 [Compound 1-235, Ethyl 2-(5-((4-(aminomethyl)-6-(trifluoromethyl)pyridin-2-yl)oxy)-2-oxo-3,4-dihydroquinolin-1(2H)-yl)acetate]",300 to 1000 nM
11,"NCc1cc(Oc2cccc(C(=O)NCc3ccc(F)cc3)c2)nc(C(F)(F)F)c1 [Compound 1-9, 3-((4-(Aminomethyl)-6-(trifluoromethyl)pyridin-2-yl)oxy)-N-(4-fluorobenzyl)benzamide hydrochloride]",< 300 nM
12,"NCc1cc(Oc2cccc(-c3ccccc3)c2)nc(C(F)(F)F)c1 [Compound 1-2, (2-([1,1′-Biphenyl]-3-yloxy)-6-(trifluoromethyl)pyridin-4-yl)methanamine trifluoroacetate]",< 300 nM
13,"CS(=O)(=O)CCNC(=O)c1cncc(Oc2cc(CN)cc(C(F)(F)F)n2)c1 [Compound 1-53, 5-((4-(Aminomethyl)-6-(trifluoromethyl)pyridin-2-yl)oxy)-N-(2-(methylsulfonyl)ethyl)nicotinamide hydrochloride]",< 300 nM
14,"COc1cc(Oc2cc(CN)cc(C(F)(F)F)n2)cc(C(=O)N2C[C@@H](O)[C@H](F)C2)c1 (racemic) [Compound 1-232, Racemic-trans-(3-((4-(aminomethyl)-6-(trifluoromethyl)pyridin-2-yl)oxy)-5-methoxyphenyl)(3-fluoro-4-hydroxypyrrolidin-1-yl)methanone hydrochloride]",300 to 1000 nM
15,"N#CCCNC(=O)c1cccc(Oc2cc(CN)cc(C(F)(F)F)n2)c1 [Compound 1-198, 3-((4-(Aminomethyl)-6-(trifluoromethyl)pyridin-2-yl)oxy)-N-(2-cyanoethyl)benzamide hydrochloride]",< 300 nM
